Converted amounts (≈) assume the structure as drawn. Read-outs that look alike come from different tables or passages of the source. Where a SMILES comes first, the peptide text is derived from it. Bridges are numbered along the chain shown (N, C = ends). [ ]: non-standard residue; d: D form. The star is where a group is joined. Decanoyl(3R-OH) = CCCCCCC[C@@H](O)CC(=O)*; dDab = NCC[C@@H](N)C(=O)O; Dab = NCC[C@H](N)C(=O)O
Key:
[1] = tested on: C. neoformans var. neoformans; assay: microbe, parasite or virus in culture; conditions: Cryptococcus neoformans, no visible growth
Protocol: (§1) The MICs of the yeast strains for PMB, PME, and octapeptin C4 and its derivatives were determined in accordance with CLSI M27-A2 guidelines using YNB (Becton Dickinson, USA) medium supplemented with 10 mM ammonium sulfate and 2% glucose, a final inoculum concentration of 1.5 × 10^3 to 2.0 × 10^3 cells/ml, and incubation at 35°C for 72 h ([39]). […] The MICs for PMB, PME, and octapeptin C4 for A. fumigatus were determined in accordance with the CLSI M38-A2 guidelines ([40]) using synthetic RPMI 1640 medium (with glutamine, without bicarbonate and with phenol red; Life Technologies, USA). The final inoculum concentration was 0.4 × 10^4 to 5 × 10^4 cells/ml, with incubation at 35°C for 48 h. […] All assays were completed in triplicate. Fluconazole was used as a positive control where the MIC was determined at both 50% growth (in accordance with CLSI M27-A2 guidelines) and when there was a “no visible growth” reading.

[2] = tested on: C. neoformans var. gattii; assay: microbe, parasite or virus in culture; conditions: no visible growth
Protocol: as §1

[3] = tested on: C. neoformans var. grubii; assay: organism not typed
Protocol: The MICs of the yeast strains for PMB, PME, and octapeptin C4 and its derivatives were determined in accordance with CLSI M27-A2 guidelines using YNB (Becton Dickinson, USA) medium supplemented with 10 mM ammonium sulfate and 2% glucose, a final inoculum concentration of 1.5 × 10^3 to 2.0 × 10^3 cells/ml, and incubation at 35°C for 72 h ([39]). […] The MICs for PMB, PME, and octapeptin C4 for A. fumigatus were determined in accordance with the CLSI M38-A2 guidelines ([40]) using synthetic RPMI 1640 medium (with glutamine, without bicarbonate and with phenol red; Life Technologies, USA). The final inoculum concentration was 0.4 × 10^4 to 5 × 10^4 cells/ml, with incubation at 35°C for 48 h. […] All assays were completed in triplicate. Fluconazole was used as a positive control where the MIC was determined at both 50% growth (in accordance with CLSI M27-A2 guidelines) and when there was a “no visible growth” reading. […]

[4] = tested on: C. neoformans H99 (cap59Δ); assay type: cell-based, Cryptococcus neoformans; conditions: Table 2; triplicate, values consistent across replicates
From the text: The different susceptibility of C. neoformans and C. gattii to PMB compared to other pathogenic fungi such as C. albicans and A. fumigatus has been postulated to arise from differences in cell surface composition ([38]). One key difference is the presence of a negatively charged polysaccharide capsule in Cryptococcus spp. proposed to concentrate the cationic lipopeptides at the cell surface ([38]). To examine this potential interaction for the octapeptin series, a C. neoformans cap59Δ mutant strain deficient in the secretion of negatively charged glucuronoxylomannan (an α1–3-linked mannan containing β1,2 and β1,4 xylosyl substitutions, as well as β1,2-linked glucuronyl residues) ([41], [42]), was tested against octapeptin C4 in comparison to PMB.
(§2) Fungal strains were stored in 15% glycerol at −80°C until use. The fungal strains used were H99 (C. neoformans type strain) ([55]), cap59Δ (an acapsular H99 mutant) ([56]), ATCC 90113 (C. neoformans), MMRL 2651 (C. gattii), ATCC 90028 (Candida albicans), ATCC 90030 (Candida glabrata), ATCC 22019 (Candida parapsilosis), and ATCC MYA 3626 (Aspergillus fumigatus). Yeasts were cultured in liquid (1% yeast extract, 2% Bacto peptone, 2% glucose) or solid (additional 2% agar) yeast extract-peptone-dextrose (YPD) media at 30°C and maintained at 4°C for no longer than 2 weeks. A. fumigatus was prepared on potato dextrose medium at 30°C and maintained at 4°C for no longer than 2 weeks.
as §1

[5] = tested on: C. neoformans ATCC 90113; conditions: ATCC 90113, 72 h
Protocol: (§3) A broth microdilution assay was initially used to characterize the antifungal activity of the cyclic lipopeptides ([39], [40]). […] common pathogenic yeasts (C. albicans, C. glabrata, C. parapsilosis, C. neoformans, and C. gattii) and one pathogenic mold (A. fumigatus) were tested to determine the MIC for each compound (Table 1) using broth microdilution. […] The only structural difference between these molecules is the presence of a phenylalanine residue at position 6 in PMB; in PME a D-leucine is present at this location (Fig. 1).
as §2, §1

[6] = tested on: C. neoformans H99; conditions: H99, 72 h
Protocol: as §3, §2, §1

[7] = tested on: C. gattii MMRL 2651
Protocol: as §3, §2, §1

[8] = Table 2, C. gattii, triplicate, values consistent across replicates

Compound: C[C@@H]1[C@H](O)[C@@H](C)/C=C/C=C/C=C/C=C/C=C/C=C/C=C/[C@H](O[C@@H]2O[C@H](C)[C@@H](O)[C@H](N)[C@@H]2O)C[C@@H]2O[C@](O)(C[C@@H](O)C[C@@H](O)[C@H](O)CC[C@@H](O)C[C@@H](O)CC(=O)O[C@H]1C)C[C@H](O)[C@H]2C(=O)O [Amphotericin B, amphotericin B]
- MIC ([1]; strain WM 01.127 (USA)): 3.13 µg/mL (≈ 3.39 µM)
- MIC ([1]; strain WM 02.141 (Russia)): 3.13 µg/mL (≈ 3.39 µM)
- MIC ([1]; strain WM 02.143 (Russia)): 3.13 µg/mL (≈ 3.39 µM)
- MIC ([1]; strain WM 02.37 (Canada)): 3.13 µg/mL (≈ 3.39 µM)
- MIC ([1]; strain WM 04.168 (Chile)): 3.13 µg/mL (≈ 3.39 µM)
- MIC ([1]; strain WM 04.171 (Thailand, environmental)): 3.13 µg/mL (≈ 3.39 µM)
- MIC ([1]; strain WM 05.467 (Brazil, environmental)): 3.13 µg/mL (≈ 3.39 µM)
- MIC ([1]; strain WM 05.515 (Peru)): 3.13 µg/mL (≈ 3.39 µM)
- MIC ([1]; strain WM 09.109 (Italy, environmental)): 3.13 µg/mL (≈ 3.39 µM)
- MIC ([1]; strain WM 09.112 (USA)): 3.13 µg/mL (≈ 3.39 µM)
- MIC ([1]; strain WM 10.119 (Australia)): 3.13 µg/mL (≈ 3.39 µM)
- MIC ([1]; strain WM 629 (Australia)): 3.13 µg/mL (≈ 3.39 µM)
- MIC ([1]; strain WM 1706 (Argentina)): 3.13 µg/mL (≈ 3.39 µM)
- MIC ([1]; strain WM 1740 (Chile)): 3.13 µg/mL (≈ 3.39 µM)
- MIC ([1]; strain WM 2207 (USA, environmental)): 3.13 µg/mL (≈ 3.39 µM)
- MIC ([1]; strain WM 2242 (USA)): 3.13 µg/mL (≈ 3.39 µM)
- MIC ([1]; strain WM 2530 (USA)): 3.13 µg/mL (≈ 3.39 µM)
- MIC ([2]; Cryptococcus neoformans, ATCC32269, strain ATCC 32269): 3.13 µg/mL (≈ 3.39 µM)
- MIC ([2]; Cryptococcus neoformans, ATCC32609, strain ATCC 32609 (NIH444)): 3.13 µg/mL (≈ 3.39 µM)
- MIC ([2]; Cryptococcus neoformans, ATCC34878, strain ATCC 34878): 3.13 µg/mL (≈ 3.39 µM)
- MIC ([2]; Cryptococcus neoformans, ATCC34882, strain ATCC 34882): 3.13 µg/mL (≈ 3.39 µM)
- MIC ([2]; Cryptococcus neoformans, strain 93/980 (CSF France)): 3.13 µg/mL (≈ 3.39 µM)
- MIC ([2]; Cryptococcus neoformans, strain 94/943-6 (CSF Mexico)): 3.13 µg/mL (≈ 3.39 µM)
- MIC ([2]; Cryptococcus neoformans, strain 94/943-8 (CSF Mexico)): 3.13 µg/mL (≈ 3.39 µM)
- MIC ([2]; Cryptococcus neoformans, strain R270 (Vancouver Island)): 12.5 µg/mL (≈ 13.5 µM)
- MIC ([2]; strain 96/1120-2 (CSF HIV2 France)): 12.5 µg/mL (≈ 13.5 µM)
- MIC [3]: 3.13 µg/mL (≈ 3.39 µM)
- MIC ([3]; Cryptococcus neoformans): 3.13 µg/mL (≈ 3.39 µM)
- MIC ([3]; strain 486 (USA), no visible growth): 3.13 µg/mL (≈ 3.39 µM)
- MIC ([3]; strain 488 (AIDS+, pre-HAART USA), no visible growth): 3.13 µg/mL (≈ 3.39 µM)
- MIC ([3]; strain 490 (USA), no visible growth): 3.13 µg/mL (≈ 3.39 µM)
- MIC ([3]; strain 496 (USA), no visible growth): 3.13 µg/mL (≈ 3.39 µM)
- MIC ([3]; strain 500 (USA), no visible growth): 3.13 µg/mL (≈ 3.39 µM)
- MIC ([3]; strain 502 (ARR3+ USA), no visible growth): 3.13 µg/mL (≈ 3.39 µM)
- MIC ([3]; strain 505 (India), no visible growth): 3.13 µg/mL (≈ 3.39 µM)
- MIC ([3]; strain 507 (India), no visible growth): 3.13 µg/mL (≈ 3.39 µM)
- MIC ([3]; strain 510 (VNII India), no visible growth): 3.13 µg/mL (≈ 3.39 µM)
- MIC ([3]; strain 512 (India), no visible growth): 3.13 µg/mL (≈ 3.39 µM)
- MIC ([3]; strain 516 (India), no visible growth): 3.13 µg/mL (≈ 3.39 µM)
- MIC ([3]; strain 518 (VNI India), no visible growth): 3.13 µg/mL (≈ 3.39 µM)
- MIC ([3]; strain 522 (India), no visible growth): 3.13 µg/mL (≈ 3.39 µM)
- MIC ([3]; strain 525 (India), no visible growth): 3.13 µg/mL (≈ 3.39 µM)
- MIC ([3]; strain 1188 (Japan lung), no visible growth): 3.13 µg/mL (≈ 3.39 µM)
- MIC ([3]; strain 1194 (Italy), no visible growth): 3.13 µg/mL (≈ 3.39 µM)
- MIC ([3]; strain 1196 (Botswana CSF/AIDS), no visible growth): 3.13 µg/mL (≈ 3.39 µM)
- MIC ([3]; strain 1197 (Botswana CSF/AIDS), no visible growth): 3.13 µg/mL (≈ 3.39 µM)
- MIC ([3]; strain H99O (lab strain), no visible growth): 3.13 µg/mL (≈ 3.39 µM)
- MIC ([3]; strain H99 stud (lab strain), no visible growth): 3.13 µg/mL (≈ 3.39 µM)

Compound: CCCCCCC[C@@H](O)CC(=O)N[C@H](C)C(=O)N[C@H]1CCNC(=O)[C@H](CC(C)C)NC(=O)[C@H](CCN)NC(=O)[C@H](CCN)NC(=O)[C@H](CC(C)C)NC(=O)[C@@H](Cc2ccccc2)NC(=O)[C@H](CCN)NC1=O [Compound P1D] ({Decanoyl(3R-OH)}-[dA][Dab][Dab][dF]L[Dab][Dab]L; lactam 2-C)
- MICs against various Cryptococcus strains: H99 (cap59Δ) [4]: 12.5 µg/mL
- MICs against various Cryptococcus strains: ATCC 90113 [5]: 6.25 µg/mL
- MICs against various Cryptococcus strains: H99 [6]: 6.25 µg/mL
- MICs against various Cryptococcus strains: MMRL 2651 [7, 8]: 12.5 µg/mL

Compound: CCCCCCC[C@@H](O)CC(=O)N[C@@H](C)C(=O)N[C@H]1CCNC(=O)[C@H](CC(C)C)NC(=O)[C@H](CCN)NC(=O)[C@H](CCN)NC(=O)[C@H](CC(C)C)NC(=O)[C@@H](Cc2ccccc2)NC(=O)[C@H](CCN)NC1=O [Compound P1L] ({Decanoyl(3R-OH)}-A[Dab][Dab][dF]L[Dab][Dab]L; lactam 2-C)
- MICs against various Cryptococcus strains: H99 (cap59Δ) [4]: 25.0 µg/mL
- MICs against various Cryptococcus strains: ATCC 90113 [5]: 12.5 µg/mL
- MICs against various Cryptococcus strains: H99 [6]: 12.5 µg/mL
- MICs against various Cryptococcus strains: MMRL 2651 ([7]; 72 h): 12.5 µg/mL

Compound: CCCCCCC[C@@H](O)CC(=O)N[C@H](CCN)C(=O)N[C@H]1CCNC(=O)[C@H](CC(C)C)NC(=O)[C@H](CCN)NC(=O)[C@H](CCN)NC(=O)[C@H](CC(C)C)NC(=O)[C@@H](Cc2ccccc2)NC(=O)[C@H](C)NC1=O [Compound P3] ({Decanoyl(3R-OH)}-[dDab][Dab]A[dF]L[Dab][Dab]L; lactam 2-C)
- MICs against various Cryptococcus strains: H99 (cap59Δ) [4]: 12.5 µg/mL
- MICs against various Cryptococcus strains: ATCC 90113 [5]: 6.25 µg/mL
- MICs against various Cryptococcus strains: H99 [6]: 6.25 µg/mL
- MICs against various Cryptococcus strains: MMRL 2651 [7, 8]: 12.5 µg/mL

Compound: CCCCCCC[C@@H](O)CC(=O)N[C@H](CCN)C(=O)N[C@H]1CCNC(=O)[C@H](CC(C)C)NC(=O)[C@H](CCN)NC(=O)[C@H](CCN)NC(=O)[C@H](CC(C)C)NC(=O)[C@@H](C)NC(=O)[C@H](CCN)NC1=O [Compound P4D] ({Decanoyl(3R-OH)}-[dDab][Dab][Dab][dA]L[Dab][Dab]L; lactam 2-C)
- MICs against various Cryptococcus strains: H99 (cap59Δ) [4]: 50.0 µg/mL
- MICs against various Cryptococcus strains: ATCC 90113 [5]: 12.5 µg/mL
- MICs against various Cryptococcus strains: H99 [6]: 12.5 µg/mL
- MICs against various Cryptococcus strains: MMRL 2651 ([7]; 72 h): 25.0 µg/mL
